From patent publication US20180147183A1, “USE OF R-OXIRACETAM IN PHARMACEUTICAL FIELD” (Chongqing Runze Pharmaceutical Co., Ltd., priority 2015, published 2018) come the findings set out here.

The nature of the series: Pharmacokinetics and bioavailability in dogs, plasma determined by LC-MS. Format: in vivo, dog. Here is the method: A. The Pharmacokinetics of R-Oxiracetam In Vivo and Studies of Bioavailability
4 Determination Methods of Oxiracetam and R-Oxiracetam in Plasma by LC-MS
4.1 Chromatographic Conditions
Mobile phase: methanol: water (5:95)
Column: ZORBAX SB-Aq (2.1×100 mm 3.5μ)
Column temperature: 30° C.;
Injection volume: […] 4.2 Mass Spectrometry Detection Parameters
Mass spectrometry ionization method: electrospray ionization (ESI); ion polarity Positive; scanning mode for multiple reactions monitoring (MRM); scanning time of 100 ms. The ionic reactions used for quantitative analysis were m/z (oxiracetam) m/z 159.0→m/z 113.9 and m/z 143.1→m/z 126.0 (piracetam), respectively.
20 μL of the drug-containing the plasma sample is taken in a 1.5 mL Eppendorf tube. 20 μL of piracetam (20 μg/mL) of the internal standard solution is added, and mixed by the vortex mixer for 30s. Then, 500 μL of acetonitrile is added thereto, vortex shaken for 5 min and centrifugated at 16000 rpm for 10 min. The supernatant from the centrifugation was passed through 1 ml of SPE C 18E column and the filtrate was collected, put into 38° C. constant temperature water bath and dried by nitrogen gas. 300 μL of mobile phase was dissolved and the injection volume was 10 μL.
20 μL of blank dog plasma was added into the working solution prepared from the oxiracetam standard. The concentrations of oxiracetam in the plasma were 0.167, 0.33, 0.37, 1.33, 2.67, 4.0, 6.67, 13.33 and 26.67 μg/mL, respectively. A sample was made for each concentration respectively according to the procedures“4.4 Extraction of plasma samples”. The ratio of the peak area (As) of oxiracetam to the peak area (Ai) of the internal standard piracetam (f=As/Ai) were calculated, and perform linear regression using the concentration (C) to the ratio (f). The weight parameter 1/x, and the oxiracetam regression equation: y=5.2117X−0.76985 (r=0.9970, weight 1/x).
20 μL of blank dog plasma was added into the working solution prepared from the R-oxiracetam standard. The concentrations of R-oxiracetam in the plasma were 0.167, 0.33, 0.37, 1.33, 2.67, 4.0, 6.67, 13.33 and 26.67 μg/mL, respectively. A sample was made for each concentration respectively according to the procedures “4.4 Extraction of plasma samples”. The ratio of the peak area (As) of R-oxiracetam to the peak area (Ai) of the internal standard piracetam (f=As/Ai) were calculated, and perform linear regression using the concentration (C) to the ratio (f). The weight parameter 1/x, and the oxiracetam regression equation: y=1.6811X−0.031244(r=0.9949, weight 1/x).

Structures are written as SMILES. Where “and” joins values, the source holds several entries; their conditions need not be identical. Equal entries are not always repeated.

For `NC(=O)CN1C[C@H](O)CC1=O` [R-oxiracetam, (R)-4-hydroxy-2-oxo-1-pyrrolidineacetamide], the “Concentration in dog blood C” value is 0 ng/mL (Time 0 h, individual dogs, one table per dog); 30410 ng/mL and 9013 ng/mL and 51070 ng/mL and 7637 ng/mL and 33000 ng/mL and 74670 ng/mL (Time 0.5 h, individual dogs, one table per dog); 50870.6 ng/mL and 35550 ng/mL and 70640 ng/mL and 48190 ng/mL and 54750 ng/mL and 112164.2 ng/mL (Time 1 h, individual dogs, one table per dog); 110222.9 ng/mL and 37880 ng/mL and 76280 ng/mL and 74560 ng/mL and 61910 ng/mL and 58530 ng/mL (Time 1.5 h, individual dogs, one table per dog); 7637 ng/mL and 14070 ng/mL and 12210 ng/mL and 4648 ng/mL and 10140 ng/mL and 4409 ng/mL (Time 6 h, individual dogs, one table per dog); 3684 ng/mL and 4731 ng/mL and 9036 ng/mL and 2318 ng/mL and 4967 ng/mL and 2215 ng/mL (Time 8 h, individual dogs, one table per dog). Also, the “Concentration in dog blood C” value reads like this: (Time 12 h, individual dogs, one table per dog) 1610 ng/mL and 1913 ng/mL and 2205 ng/mL and 1461.5 ng/mL and 3568 ng/mL and 1333 ng/mL; (Time 24 h, individual dogs, one table per dog) 0 ng/mL. Also, the concentration at 0 h (dog, plasma, Time 0 h, individual dogs, one table per dog, read-out: Concentration in dog blood C) was 0 ng/mL. Also, where the note is “dog, plasma, Time 4 h, individual dogs, one table per dog, read-out: Concentration in dog blood C”, the concentration at 4 h amounted to 18400 ng/mL. For the same compound, the concentration at 24 h (dog, plasma, Time 24 h, individual dogs, one table per dog, read-out: Concentration in dog blood C) was 0 ng/mL. Besides, for the setting “dog, plasma, dogs, mean ± SD”, the Cmax (commonly the maximum level reached in the sampled fluid or tissue) came to 85800 ± 20000 ng/mL. Moreover, the Tmax (commonly the time at which the peak concentration occurs) (dog, plasma, dogs, mean ± SD) was 2.04 ± 0.401 h. The bioavailability (dog, plasma, dogs, with oxiracetam as a reference, read-out: relative bioavailability) is 112 ± 11.6%.
